The values that follow come from ChEMBL document CHEMBL5143617 (Eur J Med Chem, 2022).

In series [1] the target is 5-hydroxytryptamine receptor 7 (Homo sapiens, UniProt P34969). As to the kind of experiment: Displacement of [3H]-5-CT from human 5-HT7 receptor expressed in CHO-K1 cells membrane by scintillation counter analysis. The series is classed as cell membranes.
Series [2] has as its target T1, 5-hydroxytryptamine receptor 1A (Homo sapiens, UniProt P08908).
T1 sequence (P08908 whole entry): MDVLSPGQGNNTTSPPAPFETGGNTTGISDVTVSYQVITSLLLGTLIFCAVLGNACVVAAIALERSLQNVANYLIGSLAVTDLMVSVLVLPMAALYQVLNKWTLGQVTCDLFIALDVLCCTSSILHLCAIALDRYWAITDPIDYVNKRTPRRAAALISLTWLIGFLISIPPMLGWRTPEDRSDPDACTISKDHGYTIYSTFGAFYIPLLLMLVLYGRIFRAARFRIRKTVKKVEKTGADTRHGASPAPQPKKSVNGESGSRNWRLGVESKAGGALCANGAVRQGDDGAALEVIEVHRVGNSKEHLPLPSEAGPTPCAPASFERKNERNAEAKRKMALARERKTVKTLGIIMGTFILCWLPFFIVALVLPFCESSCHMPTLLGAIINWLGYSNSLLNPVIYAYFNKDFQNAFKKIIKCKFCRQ
The series is described as follows: Agonist activity at human 5-HT1A receptor expressed in CHO-K1 cells assessed as stimulation of ERK1/2 phosphorylation incubated for 15 mins by Alpha LISA assay. The series is classed as functional, cell-based. A general note: In Alpha technology, singlet oxygen from a donor bead excites a nearby acceptor bead.

Another series concerns Erythrocyte. The series is described as follows: Hemolytic activity in human erythrocytes at 10^-6 to 10^-5 M after 30 mins by spectrophotometry. The series is classed as toxicity, cell-based. To be noted: 0.5 h, dose lower 1e-06 µmol/L, dose upper 1e-05 µmol/L.
Series [3] has as its target T1, 5-hydroxytryptamine receptor 1A. As to the kind of experiment: Agonist activity at human 5-HT1A receptor expressed in U2OS cells assessed as beta-arrestin recruitment incubated for 5 hrs by Tango assay. It counts as functional, cell-based. In general terms: Activated receptors often draw arrestin, which recruitment assays turn into a signal.
A short description of series [4]: Tmax in mouse plasma at 0.625 mg/kg, ip measured up to 480 mins by LC/ESI-MS/MS analysis. It counts as ADME, organism-based.
The nature of series [5]: Cmax in mouse frontal cortex at 0.625 mg/kg, ip by LC/ESI-MS/MS analysis. The series is classed as ADME, organism-based. More on the design: dose 0.625 mg/kg, route ip.
The nature of series [6]: AUC(0 to t) in mouse frontal cortex at 0.625 mg/kg, ip by LC/ESI-MS/MS analysis. It counts as ADME, organism-based. More on the design: dose 0.625 mg/kg, route ip.
The nature of series [7]: Apparent volume of distribution in mouse plasma at 0.625 mg/kg, ip measured up to 480 mins by LC/ESI-MS/MS analysis. It counts as ADME, organism-based.
Series [8] can be described thus: Cmax in mouse striatum at 0.625 mg/kg, ip by LC/ESI-MS/MS analysis. More on the design: dose 0.625 mg/kg, route ip. The series is classed as ADME, organism-based.
The target in series [9] is cAMP and cAMP-inhibited cGMP 3',5'-cyclic phosphodiesterase 10A (Homo sapiens, UniProt Q9Y233). The series is described as follows: Inhibition of PDE10A (unknown origin) at 10 uM preincubated for 20 mins followed by substrate addition and measured after 1 hr by PEDlight AMP detection reagent based luminescence assay relative to control. To be noted: time 80.0 min.
The target of the next series is D(2) dopamine receptor (Homo sapiens, UniProt P14416). The series is described as follows: Binding affinity to dopamine D2 receptor (unknown origin).
The nature of series [10]: AUC(0 to t) in mouse plasma at 0.625 mg/kg, ip measured up to 480 mins by LC/ESI-MS/MS analysis. It counts as ADME, organism-based. More on the design: time < 480 min, dose 0.625 mg/kg, route ip. The following applies: in vivo, 8 h.
The nature of series [11]: Metabolic stability in human liver microsomes assessed as half life. (In general: Liver microsomes are vesicles of endoplasmic reticulum, rich in cytochrome P450 enzymes.)
Series [12] in a line: Ratio of drug concentration in striatum to plasma in mouse at 0.625 mg/kg, ip by LC/ESI-MS/MS analysis. The series is classed as ADME, organism-based. To be noted: striatum and plasma.
Series [13] in a line: AUC(0 to t) in mouse striatum at 0.625 mg/kg, ip by LC/ESI-MS/MS analysis. The series is classed as ADME, organism-based. More on the design: dose 0.625 mg/kg, route ip.
The nature of series [14]: Aqueous solubility of compound in PBS buffer at pH 7.4 by UV absorbance based analysis. The series is classed as physicochemical.
Series [15] in a line: Ratio of drug concentration in Hippocampus to plasma in mouse at 0.625 mg/kg, ip by LC/ESI-MS/MS analysis. The series is classed as ADME, organism-based. The following applies: hippocampus and plasma.
The nature of series [16]: Tmax in mouse frontal cortex at 0.625 mg/kg, ip by LC/ESI-MS/MS analysis. The series is classed as ADME, organism-based.
Series [17] in a line: Cmax in mouse hippocampus at 0.625 mg/kg, ip by LC/ESI-MS/MS analysis. Set-up: dose 0.625 mg/kg, route ip. It counts as ADME, organism-based.
Series [18] addresses 5-hydroxytryptamine receptor 2A (Homo sapiens, UniProt P28223). The series is described as follows: Binding affinity to 5HT-2A receptor (unknown origin).

≈ marks a conversion by molar mass, not a printed value.

5-hydroxytryptamine receptor 2A, sequence (P28223 whole entry): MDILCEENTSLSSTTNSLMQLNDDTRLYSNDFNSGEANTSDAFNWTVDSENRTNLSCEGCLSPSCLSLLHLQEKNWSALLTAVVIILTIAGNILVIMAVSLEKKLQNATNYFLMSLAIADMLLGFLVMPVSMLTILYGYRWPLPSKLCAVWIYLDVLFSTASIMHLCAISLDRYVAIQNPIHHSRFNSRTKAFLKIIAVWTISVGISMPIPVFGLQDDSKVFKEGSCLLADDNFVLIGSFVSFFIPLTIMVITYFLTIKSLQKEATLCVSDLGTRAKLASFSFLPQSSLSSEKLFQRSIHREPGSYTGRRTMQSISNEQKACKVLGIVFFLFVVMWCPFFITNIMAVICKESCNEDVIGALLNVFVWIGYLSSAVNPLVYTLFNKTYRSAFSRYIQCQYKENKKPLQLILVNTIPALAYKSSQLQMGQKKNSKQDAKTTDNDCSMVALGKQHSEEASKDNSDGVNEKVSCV
D(2) dopamine receptor, sequence (P14416 whole entry): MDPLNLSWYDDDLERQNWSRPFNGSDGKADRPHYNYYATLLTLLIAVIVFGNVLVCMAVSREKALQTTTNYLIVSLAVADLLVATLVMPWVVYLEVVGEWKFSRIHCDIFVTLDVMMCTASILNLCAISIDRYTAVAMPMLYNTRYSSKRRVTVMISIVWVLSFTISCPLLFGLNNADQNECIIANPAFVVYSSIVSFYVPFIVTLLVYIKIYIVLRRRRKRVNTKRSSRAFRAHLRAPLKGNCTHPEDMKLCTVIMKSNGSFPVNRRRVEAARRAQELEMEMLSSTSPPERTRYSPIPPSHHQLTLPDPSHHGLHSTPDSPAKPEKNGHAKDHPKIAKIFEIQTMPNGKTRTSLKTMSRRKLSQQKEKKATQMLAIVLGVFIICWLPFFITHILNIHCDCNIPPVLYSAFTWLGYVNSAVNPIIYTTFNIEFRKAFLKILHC
cAMP and cAMP-inhibited cGMP 3',5'-cyclic phosphodiesterase 10A, sequence (Q9Y233 whole entry): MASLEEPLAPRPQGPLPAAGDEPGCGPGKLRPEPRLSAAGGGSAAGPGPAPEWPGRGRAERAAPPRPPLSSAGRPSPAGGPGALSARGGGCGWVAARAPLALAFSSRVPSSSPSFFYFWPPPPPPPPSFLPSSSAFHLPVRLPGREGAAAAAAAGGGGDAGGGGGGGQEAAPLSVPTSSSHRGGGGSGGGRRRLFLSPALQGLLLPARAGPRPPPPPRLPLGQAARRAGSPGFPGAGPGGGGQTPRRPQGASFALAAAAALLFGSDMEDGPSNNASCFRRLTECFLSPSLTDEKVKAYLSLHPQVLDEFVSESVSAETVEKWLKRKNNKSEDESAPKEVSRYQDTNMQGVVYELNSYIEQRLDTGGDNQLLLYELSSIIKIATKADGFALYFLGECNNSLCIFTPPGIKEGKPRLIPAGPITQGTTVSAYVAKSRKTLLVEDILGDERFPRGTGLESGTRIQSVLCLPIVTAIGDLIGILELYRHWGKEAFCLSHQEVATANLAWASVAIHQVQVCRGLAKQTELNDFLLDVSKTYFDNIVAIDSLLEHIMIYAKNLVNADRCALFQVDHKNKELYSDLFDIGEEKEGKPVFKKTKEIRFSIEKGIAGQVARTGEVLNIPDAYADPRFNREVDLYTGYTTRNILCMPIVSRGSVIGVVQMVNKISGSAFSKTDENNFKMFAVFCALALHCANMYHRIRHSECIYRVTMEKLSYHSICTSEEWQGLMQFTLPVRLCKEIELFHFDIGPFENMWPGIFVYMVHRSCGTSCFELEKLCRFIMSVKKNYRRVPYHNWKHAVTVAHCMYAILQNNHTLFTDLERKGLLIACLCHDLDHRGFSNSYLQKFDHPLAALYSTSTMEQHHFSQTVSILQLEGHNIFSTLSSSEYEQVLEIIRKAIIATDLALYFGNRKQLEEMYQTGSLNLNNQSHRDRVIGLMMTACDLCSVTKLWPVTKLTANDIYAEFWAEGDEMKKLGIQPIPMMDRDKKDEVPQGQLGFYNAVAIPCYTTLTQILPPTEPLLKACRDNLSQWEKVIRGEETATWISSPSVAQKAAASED
5-hydroxytryptamine receptor 7, sequence (P34969 whole entry): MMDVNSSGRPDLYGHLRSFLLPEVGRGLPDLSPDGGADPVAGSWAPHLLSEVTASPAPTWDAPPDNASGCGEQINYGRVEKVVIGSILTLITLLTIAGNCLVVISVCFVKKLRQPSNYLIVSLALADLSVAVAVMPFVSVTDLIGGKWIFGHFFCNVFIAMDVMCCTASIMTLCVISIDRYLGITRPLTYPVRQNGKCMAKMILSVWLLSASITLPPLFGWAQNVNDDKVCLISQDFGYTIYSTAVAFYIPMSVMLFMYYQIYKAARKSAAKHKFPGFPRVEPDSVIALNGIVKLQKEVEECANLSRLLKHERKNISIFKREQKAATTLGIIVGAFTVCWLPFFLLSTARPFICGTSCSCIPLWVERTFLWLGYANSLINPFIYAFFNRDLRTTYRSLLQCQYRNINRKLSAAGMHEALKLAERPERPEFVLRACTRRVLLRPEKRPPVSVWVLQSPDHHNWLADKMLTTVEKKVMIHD

What is called Ki is the dissociation constant of the complex between target and ligand, obtained from inhibition or displacement. Lower therefore signals tighter binding. What is called EC50 is the concentration that produces a half-maximal response. The Tmax is the time at which the peak concentration occurs. As a reminder, the Cmax is the peak of the concentration-time curve. What is called AUC(0-t) is the area under the concentration-time curve up to a stated or last time point. Low readings indicate less exposure, high ones more exposure. One may read the Vd/F as the volume of distribution divided by bioavailability. As usually defined, the inhibition is the percentage by which the read-out fell short of the control. Read a high inhibition as a response far below the control. In general, half-life refers to the time in which the quantity being followed falls by half. One may read the Kp as tissue or fluid exposure divided by exposure in the circulation. By solubility is commonly meant how much of the substance goes into solution per volume. A lower solubility goes with a poorly soluble substance. Regarding `COc1cc2ncnc(N3CCC(CN4CCN(c5ccc(Cl)cc5)CC4)C3)c2cc1OC` (stereo not given), the Ki is 138 nM in series [1], greater than 1000 nM at D(2) dopamine receptor and greater than 1000 nM in series [18]. Besides, the EC50 in series [2] is 4790 nM; in series [3], 12000 nM. Further, the Activity entry with Erythrocyte is “Non-Toxic”. Besides, the Tmax in series [4] was 5 min; in series [16] it was 480 min. Moreover, the Cmax in series [5] was determined as 327 ng/mL; in series [8] it was 317 ng/mL; in [17], 330 ng/mL. For the same compound, the AUC(0-t) in [6] was 1820 ng·h/mL; in series [13], 1060 ng·h/mL. In addition, the Vd/F in series [7] was 0.272 L/kg. Further, the inhibition in series [9] worked out at 21%. Further, in series [10], the AUCt turned out to be 730 ng·min/mL. Also, in series [11], the half-life amounted to 49 min. The Kp is 87.4 in [12] and 85.4 in [15]. The amount in solution in series [14] (solubility) came to 187 µM (≈ 87.5 µg/mL).
